Two molecules from patent US8129547B2, “Anticoagulation of human blood ex vivo” (priority 2006, dated 2012) can be followed below.

By Ki is commonly meant a dissociation constant, usually derived from enzyme kinetics or from competition with a known ligand.

Molecules are shown by their SMILES.

For assay [1], the target named is T1, Plasma-kallikrein (Homo sapiens, UniProt P03952).
T1 construct: purchased Haemochrom Diagnostica GmbH (Essen, D)
The assay is described as follows: Determination of Ki values, chromogenic substrate, Dixon evaluation: plasma-kallikrein. Particulars: 25° C., tris buffer pH 8.0, substrate Bz-Pro-Phe-Arg-pNA; read-out: Ki PK (plasma-kallikrein). It is filed as biochemical. From the text: In a particularly preferred embodiment the compound according to Formula (I) inhibits not only the blood coagulation factor XA but also thrombin and/or plasma kallikrein. […] Here too the Ki value stands for the dissociation constant of the respective enzyme-inhibitor complex. The determination of the Ki values of the inhibitors vis-a-vis thrombin and plasma kallikrein is preferably carried out in a similar manner to the determination, described above, of the Ki values of the inhibitors vis-a-vis the coagulation factor Xa, but in this case CH3SO2-D-HHT-gly-arg-pNA (with HHT=hexahydrothyrosin, and pNA=para-nitroaniline; sold under the commercial name Pefachrome tPA) are used as substrates in the case of thrombin and bz-pro-phe-arg-pNA (with bz=[…], and pNA=para-nitroaniline; sold under the commercial name Chromozym PK) in the case of plasma-kallikrein.
(§1) The inhibitors used here are the commercially available exemplary inhibitors Pefabloc tPA/Xa (2,7-bis(4-amidinobenzylidene)-cyclopeptanone-(1), Pentapharm Ltd. Basel, Switzerland), CJ-FXa (benzylsulphonyl-D-arginyl-glycyl-4-amidinobenzylamide, Haemochrom GmbH, Essen, Germany) and CJ-PK (benzylsulphonyl-D-seryl-carbobenzoxylsyl-4-amidinobenzylamide, Haemochrom GmbH, Essen, Germany). Research samples were available of DX-9065a ((+)-(2S)-2-[4-[[3S)-1-acetimidoyl-3-pyrrodinyl]oxy]phenyl]-3-[7-amidino-2-naphthyl]propanic acid, Daiichi Pharmaceutical Company Ltd., Tokyo, Japan), and Otamixaban (2-(R)-(3-carbamimidoylbenyzyl)-3-(R)-[4-(1-oxypyridin-4-yl)benzoylamino]-butyric acid-methylester, Sanofi-Aventis GmbH, Frankfurt, Germany), both of which are undergoing clinical tests. In order to examine the inhibitory action of these exemplarily used inhibitors on the blood coagulation factors plasma-kallikrein, VIIa, Xa, XIa and XIIa, the Ki values of the respective enzyme-inhibitor complexes were determined.
(§2) The enzymes were produced by Haemochrom Diagnostica GmbH (Essen, D) and were dissolved in 0.154 mol/l NaCl. The substrates (Pentapharm AG, Basel, CH) were dissolved in H2O and the inhibitor was dissolved in the above-mentioned tris buffer. The following substrates were used for the individual enzymes:
(§3) 200 μl of inhibitor solution were mixed with 25 μl of substrate for the determination and the reaction was started by the addition of 50 μl of enzyme. After a reaction time of 3-5 mins. 25 μl of acetic acid (50%) were added and the extinction was measured at 405 nm with a microplate reader (iEMS Reader MF 12401, Labsystems, Helsinki, Finland). The evaluation was carried out graphically according to Dixon (Biochem. J., 55, 170, 1953).
(§4) The enzymes were produced by Haemochrom Diagnostica GmbH (Essen, D), and only thrombin was manufactured in our own laboratory according to Walsmann (Pharmazie 23, 401-402, 1968). All the enzymes were dissolved in 0.154 mol/l NaCl. The substrates (Pentapharm AG, Basel, CH) were dissolved in H2O and the inhibitor was dissolved in the above-mentioned tris buffer. The following substrates were used for the individual enzymes:
(§5) 200 μl of inhibitor solution were mixed with 25 μl of substrate for the determination and the reaction was started by the addition of 50 μl of enzyme. After a reaction time of 3-5 mins. 25 μl of acetic acid (50%) were added and the extinction was measured at 405 nm with a microplate reader (iEMS Reader MF 1401, Labsystems, Helsinki, Finland). The evaluation was carried out graphically according to Dixon (Biochem. J., 55, 170, 1953).

The test system of assay [2] is human vein blood. The assay is described as follows: Storage of human vein blood after anticoagulation with inhibitor (F1+2 immunoassay). As to conditions: 25° C. The procedure:
In the sense of the invention anticoagulation means that the re-formation of thrombin is inhibited in the sampled blood. According to the invention thrombin re-formation is inhibited when no more than 1 nM of thrombin is re-formed in the sampled blood. As described above, the activation of prothrombin to thrombin represents an essential step in the blood coagulation cascade. In this case the prothrombin fragment 1+2 (F1+2) is released in equivalent quantities. It is therefore possible to quantify the thrombin actually formed by determining the fragment produced, thus enabling the prothrombin fragment F1+2 to be used as an indirect marker of an activation of prothrombin to thrombin. The concentration of the prothrombin fragment F1+2 formed may be determined immunologically, for example, with commercial enzyme immunoassays (for example Enzygnost F1+2 micro, Dade Behring GmbH, Marburg).
According to the invention anticoagulation therefore means that no more than 1 nM of prothrombin fragment F1+2 is newly formed in the blood after its sampling. […] Without suitable treatment of the blood to prevent coagulation there is an increase in the concentration of the prothrombin fragment F1+2 in this example to well over 1.3 nM, within a few minutes, due to the plasmatic coagulation, i.e. the blood coagulates.
In this experiment it was determined how long human vein blood can be stored without the formation of thrombin or activation of thrombocytes.
For this purpose blood (9 parts) sampled from a patient was mixed with inhibitor solution (0.05 mM, 0.5 mM or 5 mM in physiological NaCl solution; 1 part). Some of the blood was stored at 25° C., the remainder in the refrigerator at 4° C. The quantity of thrombin formed was determined immunologically during storage based on the formation of the prothrombin fragment F1+2 (Enzygnost F1+2 micro, Dade Behring GmbH, Marburg). […] In this case it is irrelevant whether the blood samples were kept at room temperature (approx. 25° C.) or at 4° C.
For this purpose blood (9 parts) sampled from a patient was mixed with inhibitor solution (0.05 mM, 0.5 mM or 5 mM in physiological NaCl solution; 1 part) and stored at room temperature (about 22±2° C.). The quantity of thrombin formed was determined immunologically during storage based on the formation of the prothrombin fragment F1+2 (Enzygnost F1+2 micro, Dade Behring GmbH, Marburg). It was shown that BAPA′ is capable of keeping anticoagulated blood uncoagulated at a concentration in the blood of 500 μM or 50 μM for more than 48 hours (Table 4). At a concentration of 5 μM BAPA′ prevents coagulation for more than 8 hours.

Assay [3] addresses T2, Factor XIIa (Homo sapiens, UniProt P00748).
T2 construct: purchased Haemochrom Diagnostica GmbH (Essen, D)
T2 sequence (P00748 373-615 limits assumed): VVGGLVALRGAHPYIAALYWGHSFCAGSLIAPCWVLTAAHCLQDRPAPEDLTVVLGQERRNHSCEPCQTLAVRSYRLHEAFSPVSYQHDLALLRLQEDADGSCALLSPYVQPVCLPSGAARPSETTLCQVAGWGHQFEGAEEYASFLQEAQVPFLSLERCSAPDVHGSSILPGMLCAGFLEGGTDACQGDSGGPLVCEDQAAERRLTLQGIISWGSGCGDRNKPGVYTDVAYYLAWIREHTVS
Kind of assay: Determination of Ki values, chromogenic substrate, Dixon evaluation: Factor XIIa. Particulars: 25° C., tris buffer pH 8.0, substrate H-D-HHT-Gly-Arg-pNA. Type of assay: biochemical.
Excerpt: as §1, §2, §3, §4, §5

In assay [4] the target is T3, Factor XIa (Homo sapiens, UniProt P03951).
T3 construct: purchased Haemochrom Diagnostica GmbH (Essen, D)
The assay is described as follows: Determination of Ki values, chromogenic substrate, Dixon evaluation: Factor XIa. It is filed as biochemical. Particulars: 25° C., tris buffer pH 8.0, substrate H-D-Lys(Cbo)-Pro-Arg-pNA.
Excerpt: as §1, §2, §3, §4, §5

T1 sequence (P03952 391-638 limits assumed): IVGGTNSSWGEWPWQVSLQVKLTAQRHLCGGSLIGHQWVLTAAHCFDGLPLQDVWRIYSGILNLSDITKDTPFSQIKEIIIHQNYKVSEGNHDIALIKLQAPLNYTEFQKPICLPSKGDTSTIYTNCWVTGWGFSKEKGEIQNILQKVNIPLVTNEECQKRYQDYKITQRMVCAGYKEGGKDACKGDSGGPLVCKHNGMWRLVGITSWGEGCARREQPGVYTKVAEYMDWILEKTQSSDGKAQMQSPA
T1 sequence (P03952 20-390 partner limits assumed): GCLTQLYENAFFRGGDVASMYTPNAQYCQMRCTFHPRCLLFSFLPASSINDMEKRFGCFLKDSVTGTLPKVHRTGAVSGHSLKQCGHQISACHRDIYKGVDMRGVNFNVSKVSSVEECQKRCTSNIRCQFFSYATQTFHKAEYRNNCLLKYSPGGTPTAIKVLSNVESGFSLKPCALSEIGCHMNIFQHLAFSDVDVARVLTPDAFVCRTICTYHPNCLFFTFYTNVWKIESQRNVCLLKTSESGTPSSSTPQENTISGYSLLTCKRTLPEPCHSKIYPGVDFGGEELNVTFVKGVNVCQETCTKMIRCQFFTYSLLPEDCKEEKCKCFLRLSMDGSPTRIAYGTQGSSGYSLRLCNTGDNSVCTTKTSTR
T3 sequence (P03951 388-625 limits assumed): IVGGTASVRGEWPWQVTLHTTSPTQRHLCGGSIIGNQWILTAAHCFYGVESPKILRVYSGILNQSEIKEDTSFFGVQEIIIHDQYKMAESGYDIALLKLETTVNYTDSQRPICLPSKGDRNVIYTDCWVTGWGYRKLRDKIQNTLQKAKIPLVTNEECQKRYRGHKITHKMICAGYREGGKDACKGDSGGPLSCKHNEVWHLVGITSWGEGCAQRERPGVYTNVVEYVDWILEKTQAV
T3 sequence (P03951 19-387 partner limits assumed): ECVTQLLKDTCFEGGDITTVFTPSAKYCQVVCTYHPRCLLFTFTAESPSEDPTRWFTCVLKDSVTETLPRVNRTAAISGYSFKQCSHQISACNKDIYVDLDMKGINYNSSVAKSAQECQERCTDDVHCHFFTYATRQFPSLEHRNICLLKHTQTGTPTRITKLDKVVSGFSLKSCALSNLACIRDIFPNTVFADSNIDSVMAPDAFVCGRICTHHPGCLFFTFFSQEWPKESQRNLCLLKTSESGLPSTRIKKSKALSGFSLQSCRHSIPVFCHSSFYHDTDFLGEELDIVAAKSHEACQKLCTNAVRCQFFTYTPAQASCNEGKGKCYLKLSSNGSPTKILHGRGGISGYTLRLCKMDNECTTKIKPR

As for `N=C(N)c1ccc(C=C2CCCCC(=Cc3ccc(C(=N)N)cc3)C2=O)cc1` [Pefabloc tPA/Xa, 2,7-bis(4-amidinobenzylidene)-cycloheptanone-(1)], the Ki was found to be 0.72 µM in assay [1], 0.36 µM in assay [3] and 42 µM in assay [4]. This molecule also returned an Anticoagulation time in assay [2] (concentration in the blood 500 μM) of 7 to 10 h.
Take `COC(=O)[C@H](Cc1cccc(C(=N)N)c1)[C@@H](C)NC(=O)c1ccc(-c2cc[n+]([O-])cc2)cc1` (mixture of isomers) [Otamixaban, 2-(R)-(3-carbamimidoylbenyzyl)-3-(R)-[4-(1-oxypyridin-4-yl)benzoylamino]-butyric acid-methylester]: the Ki in assay [1] is 0.026 µM; in assay [3], > 1000 µM; in assay [4], 23 µM. In addition, the Anticoagulation time in assay [2] (concentration in the blood 5 μM) fell in the range of 12 to 24 h.
